Experimental data reported in US20160340652A1, “CULTURE MEDIUM FOR STEM CELL DIFFERENTIATION” (The USA, as represented by the Secretary, Dept. of Health …, priority 2013, published 2016).

B1: heparinase I: bacteroides enzyme that selectively cleaves the glycosidic linkage between hexosamines and uronic acids in heparin (protein, UniProt Q05819 22-384, looked up)
Heparin lyase I: QQKKSGNIPYRVNVQADSAKQKAIIDNKWVAVGINKPYALQYDDKLRFNGKPSYRFELKAEDNSLEGYAAGETKGRTELSYSYATTNDFKKFPPSVYQNAQKLKTVYHYGKGICEQGSSRSYTFSVYIPSSFPDNATTIFAQWHGAPSRTLVATPEGEIKTLSIEEFLALYDRMIFKKNIAHDKVEKKDKDGKITYVAGKPNGWKVEQGGYPTLAFGFSKGYFYIKANSDRQWLTDKADRNNANPENSEVMKPYSSEYKTSTIAYKMPFAQFPKDCWITFDVAIDWTKYGKEANTILKPGKLDVMMTYTKNKKPQKAHIVNQQEILIGRNDDDGYYFKFGIYRVGNSTVPVTYNLSGYSETAR

Key:
[1] = system: cardiomyocyte differentiation; experiment: Cell death/survival during cardiomyocyte differentiation in supplemented E8 medium (Test 1 and Test 3); format: cell-based, human; details: Test 1 and Test 3, cell survival at day 3
Excerpt: Cell survival at day 3 is shown.

Human ESCs = experiment: High density survival screening of human ESCs in E8 medium with additives (Alkaline Phosphatase staining); format: cell-based; details: for cell death and differentiation at high density: E8 medium supplemented, 5 days after initial confluence; for pluripotent stem cell survival and differentiation efficiency: E8 medium, cells near confluence, additives added, AP staining
Description: H1 hESCs were cultured in E8 media to 60% confluence, and then continually cultured for 2 days in E8 media with indiated additives. Alkaline Phosphatase (AP) staining was performed to show the pluripotent stem cells. Dark staining represents the survival of hESC colonies.
Additives are indicated (glycogen, glycogen+lipid+heparin). H1 and H9 hESCs were cultured in E8 media to 60% confluence, and then continually cultured for 2 days in E8 media with indicated additives. Two parallel experiments were performed in incubators in either good or bad condition.
FIGS. 6a and 6b show cell proliferation and spontaneous differentiation at high density with trehalose and CM-dextran. In FIG. 6a, HI hESCs were cultured in E8 media to >90 confluence, and then continually cultured for 5 days in E8 media with indicated additives. Phase contrast images show the survival rates of the cells. Note that most of the cells in control conditions died and few cells regrew, while Trehalose and CM-Dextran treated cells survived in high confluence but some of them started to differentiate. In FIG. 6b, qPCR of pluripotent and differentiated genes expression is shown for the samples in FIG. 6a.
First, initial screening assays were carried out with different additives. In this assay, human embryonic stem cells (ESCs) are grown to near confluence in E8 medium. The additives in the set of experiments described herein are selected from trehalose, CM-Dextran, lipid mix, heparin, glycogen and albumin. Cells that were untreated served as the controls. The protocol is set forth below:
1. Human ESCs were expanded with EDTA dissociation at 1:6 ratio.
2. E8 medium was changed every day.
3. After 2-3 days, when cell density reached around 70-80% confluency.
4. Change medium, and different treatments were applied to the cells in addition to fresh E8 every day.
5. Cells in E8 started to die 1-2 days after they reached 100% confluency.
6. Plates were stained with Alkaline Phosphatase staining (APS) kit (Vector Lab) to determine pluripotency maintenance. After a few days, the plates are stained with Alkaline Phosphatase Staining (APS). The cell viability reagent PrestoBlue can also be used to measure live cells. […]

NKX2-5, TBX5 and TNNT2 = experiment: qPCR of cardiac markers after Test 3 protocol differentiation; format: cell-based, human
Description: Expression of Nkx.2, TBX5 and cTnT are shown as determined by qPCR. qPCR was performed assess relative mRNA expression of cardiac markers for cells following Test3 protocol differentiation.
Gene expression during differentiation was examined, and it was shown that the new factors affected specific gene expression during differentiation.

hPSCs = experiment: Cardiomyocyte differentiation in monolayer in E8 basal medium, CTNT/NKX2.5 flow cytometry and staining; format: cell-based, human; details: for efficiencies of cardiac differentiation: different WNT inhibitors in the presence of heparin, CTNT FACS, 10 days
Excerpt: (§1) Cardiomyocyte differentiation in monolayer: When hPSCs had grown to 80-90% confluent, 2-3 days after plating, the medium was changed from E8 to differentiation basal medium, which contains E8 basal medium (DMEM F-12, L-ascorbic acid, Selenium, Transferrin, and NaHCO3), 1× Chemically Defined Lipid Concentrate (100×, Life Technologies, 11905-031; a commercially-available lipid mixture of Arachidonic Acid, Cholesterol, DL-α-Tocopherol Acetate, Ethyl Alcohol 100%, Linoleic Acid, Linolenic Acid, Myristic Acid, Oleic Acid, Palmitic Acid, Palmitoleic Acid, Pluronic F-68, Stearic Acid, Tween 80™) and 1× Pen Strep (Life Technologies, 15140-122). That day was defined as day 0. CHIR99021 (5 uM, Tocris, 4423) was added into differentiation basal medium at day 0 for 24 hrs. IWP2 (3 uM, Tocris, 3533) was added from day 2 to day 5. Heparin was added into the medium at indicated dosages and timeline. Insulin (20 ug/ml, Sigma, 19278) was added into differentiation basal medium to maintain cardiomyocytes from day 7 onward. The medium was changed daily until day 7, and then changed every 2-3 days from day 7 onward. The growth factors, inhibitors, and enzymes used in culture were: Activin A (10 ng/ml, R&D, 338-AC/CF), BMP4 (10 ng/ml, R&D, 314-BP/CF), FGF2 (100 ng/ml, Peprotech, 100-18B), TGFβ1 (1.74 ng/ml, R&D, 240-B/CF), Dorsomorphin (3 μM, Stemgent, 04-0024), LDN-193189 (0.1 μM, Stemgent, 04-0074), PD0325901 (1 μM, Stemgent, 04-0008), SB431542 (3 μM, Selleckchem, s1067), Heparin (Sigma, H3149), Heparinase I (New England Biolabs, P0735S).
Immunofluorecence staining: Cells cultured in monolayer were fixed in 2% PFA for 10 minutes at room temperature, washed with PBS and permeabilized with 0.2% Triton X-100/PBS for 3 minutes. After successive washes in PBS, the cells were blocked in 10 mg/ml BSA for 30 minutes and incubated with primary antibody for 1 hour at room temperature. Cells were then washed 3 times with PBS for 5 minutes and incubated with secondary antibodies (Alexa 488 or 594-conjugated) for 1 hour. DAPI was applied for nuclei staining. The following primary antibodies were used for immunofluorescence: alpha actinin (mouse, 1:1000, A7811, Sigma), CTNI (cardiac troponin I, rabbit, 1:200, sc-15368, Santa Cruz), CTNT (cardiac troponin T, mouse, CT3, 1:1000, DSHB), Desmin (mouse, 1:100, M0760, DaKo) NKX2.5 (rabbit, ab35842; 1:200, Abcam).
Flow cytometry assay: Cells differentiated for 10 days in monolayer were dissociated with TrypLE (Invitrogen) for 5 minutes. Single cells were washed off and suspended by DMEM/10% FBS followed by centrifugation. The pellets were washed by PBS once and fixed by 2% PFA for 5 minutes. After washing with PBS and centrifuging, permeabilization was performed by 0.3% Triton X-100 for 3 minutes. The cells were centrifuged and re-suspended with 1% BSA to block unspecific binding of antibody, followed by incubation with primary antibodies (diluted in 1% BSA) for 1 hour. After washed, the cells were incubated with second antibodies conjugated with FITC or PE (Invitrogen, 1:1000 diluted in PBS) for 30 minutes. The cells were washed once and suspended in PBS for the flow cytometry assay.
The inventors developed an E8 basal medium (consisting of E8 media without NaHCO3, insulin, bFGF, or TGFβ; i.e., containing DMEM/F-12, L-ascorbic acid, selenium, and transferrin). This E8 basal medium was used in a differentiation protocol for human H1 ESCs with initial WNT activation (using GSK3β inhibitor, CHIR99021) applied to the cells in culture at days 0-1 (i.e., days following initiation of the stem cell differentiation protocol; day 0 is the day on which the stem cell differentiation protocol begins when the previously plated cells reach at least 75% confluence and the specific cell culture media are applied to the cells to being the cardiomyocyte differentiation protocol, day 1 is the next day in which specific media may be applied to the cells, and day 2 is the following day, etc.). […]

H1 ESCs = experiment: Live cell number yield after 10 days differentiation; format: cell-based, human; details: WNT inhibitor in the presence of heparin
Excerpt: as §1, with “The growth factors, inhibitors, and enzymes used in culture were: Activin A (10 ng/ml, R&D, 338-AC/CF), BMP4 (10 ng/ml, R&D, 314-BP/CF), FGF2 (100 ng/ml, Peprotech, 100-18B), TGFβ1 (1.74 ng/ml, R&D, 240-B/CF), Dorsomorphin (3 μM, Stemgent, 04-0024), LDN-193189 (0.1 μM, Stemgent, 04-0074), PD0325901 (1 μM, Stemgent, 04-0008), SB431542 (3 μM, Selleckchem, s1067), Heparin (Sigma, H3149), Heparinase I (New England Biolabs, P0735S).” left out

[2] = system: Brachyury (T), Wnt3A, Axin2, KDR, GATA4; experiment: Real-time PCR of stage-specific marker expression during cardiac differentiation; format: cell-based, human
Description: Real-time PCR: RNA was purified using TRI Reagent™ Solution according to Ambion's protocol. Residual DNA was removed using the TURBO DNA-Free™ kit. Reverse transcription was carried out with Maxima H Minus Reverse Transcriptase (Thermo Scientific) primed with Poly N15-mer (Eurofins) with the recommended protocol. Prior to PCR, RNA template was removed with addition of Ambion Ribonuclease H from E. coli. Real-time PCR was performed on the BIO-RAD CFX96 using SsoAdvanced™ Universal SYBR® Green Supermix. PCR primers were listed in the supplementary table.
To investigate the function of heparin in mesoderm determination and cardiac specification, stage-specific marker expression levels were measured by qPCR (FIG. 33).

Molecule | cell death during differentiation [1] | cell death and differentiation at high density (Human ESCs) | pluripotent stem cell survival and differentiation efficiency (Human ESCs) | cardiomyocyte differentiation by mRNA expression of NKX2-5, TBX5 and TNNT2 (NKX2-5, TBX5 and TNNT2) | efficiencies of cardiac differentiation (hPSCs) | other results
CM-dextran | suppressed cell death during differentiation | little cell death, and the cells differentiated | enhanced pluripotent stem cell survival and differentiation efficiency | promoted cardiomyocyte differentiation | – | –
Oc1nc(-c2ccc(C(F)(F)F)cc2)nc2c1CSCC2 [XAV939] | – | – | – | – | comparable efficiencies of cardiac differentiation | –
O=C(Nc1cccc2cccnc12)c1ccc(N2C(=O)[C@@H]3[C@H](C2=O)[C@@H]2C=C[C@H]3C2)cc1 [IWR1] | – | – | – | – | comparable efficiencies of cardiac differentiation | cell death and cardiomyocyte yield (H1 ESCs): caused more cell death and yielded fewer cardiomyocytes
OC[C@H]1O[C@H](O[C@H]2O[C@H](CO)[C@@H](O)[C@H](O)[C@H]2O)[C@H](O)[C@@H](O)[C@@H]1O [trehalose, Trehalose] | suppressed cell death during differentiation | little cell death, and the cells differentiated | enhanced pluripotent stem cell survival and differentiation efficiency | promoted cardiomyocyte differentiation | – | –
Cc1ccc2nc(NC(=O)CSc3nc4c(c(=O)n3-c3ccccc3)SCC4)sc2c1 [IWP2] | – | – | – | – | comparable efficiencies of cardiac differentiation | Axin2 expression at day 5 ([2]; all 5 hPSC lines): inhibited; expression of cardiac progenitor marker GATA4 ([2]; qPCR, day 5, 7 different human PSC lines): promoted; cardiomyocyte purity at day 10 (hPSCs; H1 ESCs, CHIR99021 days 0-1, IWP2 days 2-5, no heparin, no albumin or B27): ≤ 50%; cardiac differentiation (CTNT and NKX2.5 staining) (hPSCs; increasing IWP2 dosage, without heparin): did not significantly enhance cardiac differentiation
B1 | – | – | – | – | – | effect of heparin in the promotion of cardiac differentiation (hPSCs; co-treatment with heparinase I and heparin): dramatically blocked; cardiac cell differentiation seen with IWP2 treatment (hPSCs; heparinase I with IWP2): significantly suppressed
